# From patent US10272061B2, “Compositions and methods for unoccluded transdermal oxybutynin therapy” (Allergan Sales, LLC, priority 2000, dated 2019)
# Read-outs that look alike come from different tables or passages of the source.
# Legend:
# [1] = Plasma concentrations after single application of 4.4% oxybutynin topical gel to the abdomen; assay type: in vivo, human; settings: single 3 g of 4.4% oxybutynin gel, 400 cm^2 abdomen; for time over which mean plasma levels increased steadily to Cmax: 'during the following' hours
# Source text: (§1) A clinical study in 22 healthy volunteers, 19 to 45 years of age, evaluated plasma concentrations of oxybutynin and the N-desethyloxybutynin metabolite after a single topical application of oxybutynin gel. The study employed a single dose design to evaluate the pharmacokinetics and skin tolerability of a gel formulation for oxybutynin hydrochloride.
# (§2) Volunteers received a single topical administration of 3 g of 4.4% oxybutynin gel to a 400 cm^2 area of unbroken skin on the abdomen. Blood samples were periodically collected throughout the study period and plasma was harvested according to standard procedures. Plasma oxybutynin and N-desethyloxybutynin metabolite concentrations were estimated using a high performance liquid chromatography-tandem mass spectrometry method performed according to established guidelines.
# [2] = Plasma concentrations after single application of 13.2% oxybutynin topical gel to the abdomen; assay type: in vivo, human; settings: single 1 g of 13.2% oxybutynin gel, 133 cm^2 abdomen; for time over which mean plasma levels increased steadily to Cmax: 'during the following' hours
# Source text: as §1
# as §2, with “1” for “3”, “13.2%” for “4.4%”, “133” for “400”
# [3] = Single and multiple dose pharmacokinetics after oxybutynin gel administration; assay type: in vivo, human; settings: for mean Cmax: 72 hour evaluation; for half-life: read-out: elimination half-life (converted)
# Experimental: A clinical study in 20 healthy volunteers, 20 to 44 years of age, evaluated the single and multiple dose pharmacokinetics of oxybutynin and N-desethyloxybutynin following topical oxybutynin gel administration. The study employed a two-period multiple dose study.
# In the first treatment period, volunteers received a topical administration of 3 g of 4.4% oxybutynin gel followed by a 72 hour evaluation period. The second treatment period, oxybutynin gel was administered topically to the volunteers on 7 consecutive mornings. The two treatment periods were separated by a 7-day washout period. Blood samples were periodically collected throughout the study periods and plasma was harvested according to standard procedures. Plasma oxybutynin and N-desethyloxybutynin metabolite concentrations were estimated using high performance liquid chromatography-tandem mass spectrometry method performed according to established guidelines.
# After a 7-day washout following the initial gel application, subjects applied daily 3 g doses of oxybutynin gel to rotating body sites (abdomen, upper arms, thighs) for 7 consecutive days. Plasma samples were drawn each morning before the next gel application.
# [4] = Single-dose pharmacokinetics after oxybutynin gel on 400 cm^2 and 800 cm^2 application areas on the thighs; assay type: in vivo, human; settings: 3 g of 4.4% oxybutynin gel; for Cmax: at 48 hours
# Source text: A clinical study in 21 healthy volunteers, 21 to 45 years of age, evaluated the effect of application surface area on the single-dose pharmacokinetic of oxybutynin following topical oxybutynin gel administration. The study employed a two-period, open-labeled, randomized crossover design to evaluate the effect of application surface area on the single dose pharmacokinetics and safety of a topical gel formulation of oxybutynin hydrochloride.
# Volunteers received topical administrations of 3 g of 4.4% oxybutynin gel at the beginning of two 72 hour treatment periods, with a minimum six day washout separating the treatment periods. Each volunteer received a dose applied to a 400 cm^2 area in one treatment period, and a dose to an 800 cm^2 area the other treatment period. The sequential order of the treatment periods was randomized. Blood samples were periodically collected throughout the study periods and plasma was harvested according to standard procedures. Plasma oxybutynin and N-desethyloxybutynin metabolite concentrations were evaluated using high performance liquid chromatography-tandem mass spectrometry method performed according to established guidelines.
# [5] = Plasma concentrations after single and repeated application of 4.4% oxybutynin gel to the abdomen; assay type: in vivo; settings: human, topical, once daily
# Source text: as §1, with “in 12” for “in 22”, “to 41” for “to 45”, “after” for “after a”, “single and repeated” for “single”, “topical applications” for “topical application”, “a single-period, open-label, multiple” for “a single”
# as §2, with “received” for “received a single”, “topical administrations” for “topical administration”, “gel on 3 consecutive mornings. Each volunteer received the oxybutynin gel administrations on” for “gel to”, “a defined” for “a 400 cm^2”, “using” for “using a”
# [6] = plasma, first period: single 3 g of 4.4% oxybutynin gel
# [7] = second period: 7 consecutive daily 3 g gel applications
# [8] = 400 cm^2 application area, thighs
# [9] = 800 cm^2 application area, thighs
# [10] = human, topical, plasma, read-out: elimination half-life (converted)
# [11] = first period: single 3 g of 4.4% oxybutynin gel
# [12] = second period, after the final of 7 daily gel applications
compound,measurement,setting,value
CCNCC#CCOC(=O)C(O)(c1ccccc1)C1CCCCC1 (stereo not shown) [N-desethyloxybutynin],elimination half-life,[1]; plasma,approximately 26.81 hours
same,time of second plasma peak after dosing,[1],approximately 48 hours
same,mean maximum plasma concentration (Cmax),[1]; healthy volunteers,2.20 ng/mL
same,time at which measurable plasma levels were detectable (first sampling point),[1]; healthy volunteers,2 h
same,time over which mean plasma levels increased steadily to Cmax,[1],28 h
same,elimination half-life,[2]; plasma,19.53 h
same,mean Cmax,"[2]; plasma, healthy volunteers",1.12 ng/mL
same,time of second plasma peak after dosing,[2],approximately 48 hours
same,time at which measurable plasma levels were detectable (first sampling point),[2]; healthy volunteers,2 h
same,time over which mean plasma levels increased steadily to Cmax,[2],28 h
same,mean Cmax,[3]; [6],4.50 ng/mL
same,mean AUC,"[3]; plasma, first period: single 3 g of 4.4% oxybutynin gel, 72 hour treatment period",157 ng·h/mL
same,mean AUC,"[3]; plasma, second period, first 24 hours after the final of 7 daily 3 g gel applications",125 ng·h/mL
same,time of maximum concentration after the final gel application,[3]; [7],approximately 16 hours
same,mean Cmax following the final gel application,"[3]; second period: 7 consecutive daily 3 g gel applications, N-desethyloxybutynin: maximum for the 0-24 hour interval",6.44 ng/mL
same,mean plasma level at the initial peak,[4]; [8],2.21 ng/mL
same,time at which measurable plasma levels were detectable,[4]; [8],≤ 2 h
same,time of the initial plasma peak,[4]; [8],28 h
same,plasma peak during the first 24 hours following dosing,[4]; [9],2.39 ng/mL
same,Cmax,"[4]; plasma N-desethyloxybutynin, 400 cm^2 application area",2.72 ng/mL
same,Cmax,"[4]; plasma, 800 cm^2 application area",3.40 ng/mL
CCN(CC)CC#CCOC(=O)C(O)(c1ccccc1)C1CCCCC1 (stereo not shown) [oxybutynin],Cmax,"[1]; human, plasma, topical, healthy volunteers, read-out: mean maximum plasma concentration (Cmax)",2.17 ng/mL
same,half-life,[1]; [10],~18.4 h
same,time of second plasma peak after dosing,[1],approximately 48 hours
same,time at which measurable plasma levels were detectable (first sampling point),[1]; healthy volunteers,2 h
same,time over which mean plasma levels increased steadily to Cmax,[1],24 h
same,Cmax,"[2]; human, topical, plasma, healthy volunteers",1.17 ng/mL
same,half-life,[2]; [10],17.7 h
same,time of second plasma peak after dosing,[2],approximately 48 hours
same,time at which measurable plasma levels were detectable (first sampling point),[2]; healthy volunteers,2 h
same,time over which mean plasma levels increased steadily to Cmax,[2],26 h
same,concentration at 24 h,"[5]; plasma, 3 g of 4.4% oxybutynin gel, after the initial application of 3 g of 4.4% oxybutynin gel, read-out: plasma concentration at the 24 hour post-dose timepoint, mean±SD",4.02 ± 2.19 ng/mL
same,concentration at 24 h,"[5]; plasma, 3 g of 4.4% oxybutynin gel, after the second daily application of 3 g of 4.4% oxybutynin gel, read-out: plasma concentration 24 hours after application, mean±SD",4.47 ± 2.38 ng/mL
same,concentration at 24 h,"[5]; plasma, 3 g of 4.4% oxybutynin gel, after the third daily application of 3 g of 4.4% oxybutynin gel, read-out: plasma concentration at the 24 hour post-dose timepoint, mean±SD",5.86 ± 3.17 ng/mL
same,half-life,"[5]; 3 g of 4.4% oxybutynin gel, plasma elimination after the third application of 4.4% oxybutynin gel, read-out: apparent half-life (converted)",~18 h
same,Cmax,"[5]; plasma, following the third application of 3 g of 4.4% oxybutynin gel, read-out: Cmax, mean±SD",6.05 ± 3.21 ng/mL
same,average plasma concentration during the 20 hours following the application,[3]; after the final of 7 daily 3 g gel applications,6.22 ng/mL
same,mean oxybutynin AUC higher than mean N-desethyloxybutynin AUC,[3]; [11],~41%
same,mean oxybutynin Cmax higher than mean N-desethyloxybutynin Cmax,[3]; [11],approximately 18%
same,time within which measurable plasma levels were detectable,[3]; [11],two
same,Cmax,"[3]; human, plasma, topical, 3 g of oxybutynin gel, once daily, second period: 7 consecutive daily 3 g gel applications, N-desethyloxybutynin: maximum for the 0-24 hour interval, read-out: mean Cmax following the final gel application",9.01 ng/mL
same,concentration at 0 h,"[3]; human, plasma, topical, 3 g of oxybutynin gel, once daily, second period: 7 consecutive daily 3 g gel applications, read-out: mean plasma concentration at Time 0 of the final gel application",4.63 ng/mL
same,half-life,"[3]; human, topical, 3 g of oxybutynin gel, once daily, plasma, after the final of 7 daily 3 g gel applications",~24 h
same,AUC,"[3]; human, topical, 3 g of oxybutynin gel, once daily, plasma, second period, first 24 hours after the final of 7 daily 3 g gel applications",149 ng·h/mL
same,AUC,"[3]; human, topical, plasma, first period: single 3 g of 4.4% oxybutynin gel, 72 hour treatment period",186 ng·h/mL
same,half-life,"[3]; human, topical, plasma, first period: single 3 g of 4.4% oxybutynin gel",~18 h
same,mean Cmax,[3]; [6],6.35 ng/mL
same,mean oxybutynin AUC higher than mean N-desethyloxybutynin AUC,[3]; [12],~19%
same,mean oxybutynin Cmax higher than mean N-desethyloxybutynin Cmax,[3]; [12],approximately 40%
same,time of maximum concentration after the final gel application,[3]; [7],approximately 23 hours
same,time at which measurable plasma levels were detectable,[4]; [8],2 h
same,time of the initial plasma peak,[4]; [8],24 h
same,plasma peak during the first 24 hours following dosing,[4]; [9],2.92 ng/mL
same,concentration at 24 hours,"[4]; human, plasma, topical, 400 cm^2 application area, thighs, read-out: mean plasma level at the initial peak",2.25 ng/mL
same,Cmax,"[4]; human, topical, plasma, 800 cm^2 application area, read-out: Cmax",3.8 ng/mL
